Laboratory results taken from US11173102B1, “Methods and compositions for removing color from color-treated hair” (L'Oreal, priority 2020, dated 2021).
Values joined by “and” are separate entries in the source; they are usually repeats but may differ in a detail not shown here. Equal values may be shown once.

Columns and labels:
[1] = Log Pow (octanol/water partition coefficient) of direct dyes; conditions: octanol/water partition coefficient of the dye
[2] = Color removal (ΔE) from HC blue 15 dyed, multiple-shampooed platinum bleached hair, with co-surfactants and cyclic compounds; conditions: 30 min 40° C.
[3] = Color removal (ΔE) from hair swatches dyed with HC Blue 15, soaked 30 minutes at 40° C., shampooed once
Method: Unless otherwise indicated, hair swatches were all treated using the same protocol. Specifically, 2 g dyed hair swatches were soaked in 80 g treatment solutions or samples in water for 30 minutes at 40° C., then the treated hair swatches were then shampooed once and blow-dried for evaluation.

[4] = Controlled color removal of two-tone colored hair over one, three and six shampoo washes; conditions: 10% TBuMA Cl added to commercial shampoo containing about 9% SLES, up to six washes
From the text: The swatches were then washed with either the shampoo alone (control) or shampoo with TBuMA Cl and evaluated after one, three and six washes. Without addition of TBuMA Cl, the indigo color shifts to green as the number of shampoos increased. This is because Basic Red 51, a cationic direct dye, is washed out faster from hair by washing with shampoo than the HC Blue 15.

[5] = Color removal (ΔE) from hair swatches dyed with hydroxyanthraquinoneaminopropyl methyl morpholinium methosulfate, 23° C.; conditions: 6% SLES in water; 30 min 23° C.

Compound | Log Pow [1] | also measured
CNc1cc(OCC(O)CO)ccc1[N+](=O)[O-] (stereo not drawn) [2-NITRO-5-GLYCERYL METHYLANILINE] | 0.89 | –
O=[N+]([O-])c1cc(O)ccc1NCCO [3-NITRO-P-HYDROXYETHYLAMINOPHENOL] | 0.21 | –
Nc1ccc(O)cc1[N+](=O)[O-] [4-AMINO-3-NITROPHENOL] | 1.19 | –
Nc1c(N=Nc2ccc([N+](=O)[O-])cc2)c(S(=O)(=O)[O-])cc2cc(S(=O)(=O)[O-])c(N=Nc3ccccc3)c(O)c12.[Na+].[Na+] [ACID BLACK 1] | 1.2 | –
CCN(Cc1cccc(S(=O)(=O)[O-])c1)c1ccc(C(=C2C=CC(=[N+](CC)Cc3cccc(S(=O)(=O)[O-])c3)C=C2)c2ccccc2S(=O)(=O)[O-])cc1.[Na+].[Na+] [ACID BLUE 9] | −0.32 | –
Cc1ccc(Nc2ccc(Nc3ccc(C)cc3S(=O)(=O)[O-])c3c2C(=O)c2ccccc2C3=O)c(S(=O)(=O)[O-])c1.[Na+].[Na+] [ACID GREEN 25] | 5.71 | –
O=S(=O)([O-])c1ccc(N=Nc2c(O)ccc3ccccc23)cc1.[Na+] [ACID ORANGE 7] | 1.4 | –
O=S(=O)(O)c1cc(S(=O)(=O)O)c2c(/N=N\c3ccc(S(=O)(=O)O)c4ccccc34)c(O)ccc2c1 [ACID RED18] | 1.63 | –
Nc1cc(S(=O)(=O)[O-])cc2cc(S(=O)(=O)[O-])c(N=Nc3ccccc3)c(O)c12.[Na+].[Na+] [ACID RED 33] | 0.5 | –
CCN(CC)c1ccc2c(-c3ccc(S(=O)(=O)[O-])cc3S(=O)(=O)[O-])c3ccc(=[N+](CC)CC)cc-3oc2c1.[Na+] [ACID RED 52] | 1.3 | –
O=C([O-])c1c(Cl)c(Cl)c(Cl)c(Cl)c1-c1c2cc(Br)c(=O)c(Br)c-2oc2c(Br)c([O-])c(Br)cc12.[Na+].[Na+] [ACID RED 92] | 3 | –
Cc1ccc(Nc2ccc(O)c3c2C(=O)c2ccccc2C3=O)c(S(=O)(=O)[O-])c1.[Na+] [ACID VIOLET 43] | 3.1 | –
O=C([O-])C1=NN(c2ccc(S(=O)(=O)[O-])cc2)C(=O)C1N=Nc1ccc(S(=O)(=O)[O-])cc1.[Na+].[Na+].[Na+] (stereo not drawn) [ACID YELLOW 23] | −10.17 | –
C[N+](C)(C)c1cccc(N=C2C=C(N)c3c(O)c(Br)cc(N)c3C2=O)c1.[Cl-] [BASIC BLUE 99] | 1.88 | –
C[N+](C)(C)c1ccc2ccc(O)c(N=Nc3ccc(N)c([N+](=O)[O-])c3)c2c1.[Cl-] [BASIC BROWN 17] | −0.15 | –
Cn1cc[n+](C)c1N=Nc1ccc(N)cc1.[Cl-] [BASIC ORANGE 31] | −2.31 | –
CN(C)c1ccc(N=Nc2n(C)cc[n+]2C)cc1.[Cl-] [BASIC RED 51] | −1.97 | Log Pow ([1]; listed as Basic Red 51): around −1.97
CC1=NN(c2ccccc2)C(=O)C1N=Nc1cccc([N+](C)(C)C)c1.[Cl-] (stereo not drawn) [BASIC YELLOW 57] | 0.06 | –
OCc1ccccc1 [Benzyl Alcohol, benzyl alcohol] | – | ΔE ([2]; 10% Benzyl Alcohol, hair pre-shampooed 6×): 9.4
CCO [EtOH, ethanol] | – | ΔE ([2]; 16% EtOH, hair pre-shampooed 4×): 1.77; ΔE ([2]; 16% EtOH, hair pre-shampooed 6×): 1.8
CCCC[N+](C)(CCCC)CCCC.[Cl-] [TBuMA Cl, tributylmethyl ammonium chloride] | – | ΔE ([3]; 10 wt.% organic salt, 0 wt. % SLES, 30 min 40° C.): 1.8; leaching of Basic Red 51 ([4]; versus shampoo alone): deterred or inhibited; removal of HC Blue 15 ([4]; versus shampoo alone): accelerated; indigo color tone during shampooing [4]: maintained; ΔE ([2]; 10% TBuMA Cl, hair pre-shampooed 4×): 3.63
COS(=O)(=O)[O-].C[N+]1(CCCNc2ccc(O)c3c2C(=O)c2ccccc2C3=O)CCOCC1 [hydroxyanthraquinoneaminopropyl methyl morpholinium methosulfate] | 0.89 | Log Pow ([1]; listed as hydroxyanthraquinoneaminopropyl methyl morpholinium methosulfate): around 0.89
ACID YELLOW 3 | −1.05 | –
sodium laureth sulfate [SLES] | – | ΔE ([3]; 0 wt.% organic salt, 3 wt. % SLES, 30 min 40° C.): 21.08 and 21.1; ΔE ([3]; 0 wt.% organic salt, 6 wt. % SLES, 30 min 40° C.): 21.81 and 21.4; ΔE ([3]; 0 wt.% organic salt, 12 wt. % SLES, 30 min 40° C.): 21.84; ΔE ([3]; SLES alone, over the concentrations tested (3-12 wt. %)): 21-22; ΔE [5]: 18.2; ΔE ([2]; 6% SLES, hair pre-shampooed 4×): 19.3; ΔE ([2]; 6% SLES, hair pre-shampooed 6×): 15.01

More lines, main results first:

Log Pow [1] | Compound | also measured
−1.69 | CN(N=Cc1cc[n+](C)cc1)c1ccccc1 [BASIC YELLOW 87] | –
3 | Nc1ccc(N)c2c1C(=O)c1ccccc1C2=O [DISPERSE VIOLET 1] | –
−0.32 | O=[N+]([O-])c1cc(N(CCO)CCO)ccc1NCCO [HC BLUE NO. 2] | –
2.09 | O=C1c2ccccc2C(=O)c2c(NCC(O)CO)ccc(NCC(O)CO)c21 (stereo not drawn) [HC BLUE NO. 14] | –
3.47 | CC1=CC(=C(c2cc(C)c(N)c(C)c2)c2c(Cl)cccc2Cl)C=C(C)C1=N.O=P(O)(O)O [HC BLUE NO. 15] | Log Pow ([1]; listed as HC Blue 15): around 3.47; Log Pow ([1]; listed as HC blue 15): around 3.47
0.13 | NCCNc1ccc(OCCO)cc1[N+](=O)[O-] [HC ORANGE NO. 2] | –
−0.42 | Nc1ccc(NCCO)c([N+](=O)[O-])c1 [HC RED NO.3] | –
0.67 | Cc1cc(N)c([N+](=O)[O-])cc1NCCO [HC VIOLET NO 1] | –
0.608 | O=[N+]([O-])c1cc(N(CCO)CCO)ccc1NCCCO [HC VIOLET NO 2] | –
1.3 | COc1ccc([N+](=O)[O-])c(NCCN)c1.Cl [HC YELLOW NO.9] | –
2.59 | Cc1cc(N(CCO)CCO)ccc1N=Nc1ccc(N)cc1 [HC YELLOW NO. 7] | –
0.13 | HC RED NO. 7 | –
